7 molecules from patent US20240051975A1 (TSINGHUA UNIVERSITY, priority 2020, published 2024) can be followed below.

Each structure is given as a SMILES string.

The target of assay [1] is T1, NAMPT (Homo sapiens, UniProt P43490). Nature of the assay: Isothermal calorimetric titration (ITC) binding to NAMPT.
From the text: We verified the direct binding between in vitro expressed and purified NAMPT and NAT by isothermal calorimetric titration (ITC). […] The final data were fitted using a single-point model.
The subject of assay [2] is cell death induced by the NAMPT inhibitor FK866. Nature of the assay: Protection against cell death induced by the NAMPT inhibitor FK866 (Celltiter-Glo, cellular ATP). The following applies: AUC of dose-response curve (0.1-10 μM) relative to AUC of NAT; 10 nM FK866, 72 hours, cell viability by ATP. Type of assay: cell-based. On the procedure:
In the latter cell-based assay, we determined the degree of protection of NAT and derivatives thereof against the NAMPT inhibitor FK866. […] After 72 hours, Celltiter-Glo (Promega) was used to detect cellular ATP levels to reflect cell viability and normalized to the DMSO group. A dose-response curve was drawn to evaluate the cytoprotective activity of individual compounds against FK866. Then the area under the dose-response curve (AUC, area under curve) of each compound was calculated and compared with the AUC of NAT, so that the obtained relative value quantitatively expressed the cytoprotective activity of each compound.
Background: In ATP-based viability assays light output follows the ATP content of the culture.

Assay [3] concerns the target T1, NAMPT. Nature of the assay: NAMPT enzyme activity assay coupled with NMNAT1 and ADH (NADH fluorescence). The following applies: for Relative activation of NAMPT activity: AUC of dose-response curve (0.1, 0.3, 1, 3, 10 μM) relative to AUC of NAT (NAT = 1), 1 μM NAMPT, 200 μM NAM.
Method: The NAMPT enzyme activity was assayed by a method coupled with the three enzymes: NAMPT, NMNAT1 and alcohol dehydrogenase (ADH). NAMPT synthesizes NMN from NAM and PRPP, NMNAT1 synthesizes NAD from NMN produced in the first step, and ADH converts NAD into detectable fluorescent NADH. […] The reaction was initiated by adding 200 μM nicotinamide (NAM) and mixing gently. The enzyme activity of NAMPT was expressed as the concentration of NADH generated per minute (the molar value was equal to NAD). The relative enzyme activity of NAMPT in each compound-treated group was normalized by the value of the DMSO-treated group, and a dose-response curve was drawn to evaluate the effect of individual compounds on NAMPT enzyme activity. The area under the dose-response curve (AUC, area under curve) was then calculated for individual compound and compared to the AUC of NAT, so that the obtained relative value quantitative Eauc represented the enzyme activation activity of each compound, and the specific calculation formula was shown in FIG. 3.

T1 sequence (P43490 whole entry, species assumed): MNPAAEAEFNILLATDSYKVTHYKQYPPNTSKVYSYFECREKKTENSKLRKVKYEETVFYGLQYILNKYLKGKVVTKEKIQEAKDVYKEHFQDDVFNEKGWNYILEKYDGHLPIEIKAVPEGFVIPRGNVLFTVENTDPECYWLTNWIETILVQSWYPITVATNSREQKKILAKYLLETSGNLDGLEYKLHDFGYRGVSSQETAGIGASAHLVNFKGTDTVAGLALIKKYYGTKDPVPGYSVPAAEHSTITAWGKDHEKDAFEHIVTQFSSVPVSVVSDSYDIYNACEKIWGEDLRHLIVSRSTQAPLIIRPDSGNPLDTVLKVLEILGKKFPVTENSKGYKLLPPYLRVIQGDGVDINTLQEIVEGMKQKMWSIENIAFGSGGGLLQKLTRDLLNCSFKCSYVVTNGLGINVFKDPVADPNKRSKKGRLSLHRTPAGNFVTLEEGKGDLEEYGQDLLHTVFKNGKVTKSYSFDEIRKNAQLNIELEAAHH

As to `CC(C)(C)c1ccccc1OCC(=O)Nc1ccccc1` [Compound 2, 2-(2-(tert-butyl)phenoxy)-N-phenylacetamide], the “binding to NAMPT (in words)” value on NAMPT [1] was “cannot bind NAMPT”. The molecule further displayed a Relative cytoprotective activity in assay [2] of 0.02446. In addition, on NAMPT [3], the “NAMPT activation activity (in words)” value is reported as “cannot activate NAMPT” and the “Relative activation of NAMPT activity” value is reported as −0.2247.

On to `CC(C)(C)c1cccc(OCC(=O)Nc2ccc(O)cc2)c1` [Compound 13, 2-(3-(tert-butyl)phenoxy)-N-(4-hydroxyphenyl)acetamide], for which the Relative cytoprotective activity in assay [2] worked out at 0.2653. The “Relative activation of NAMPT activity” value on NAMPT [3] was determined as 0.2733.

The molecule `CC(C)(C)c1cc(Cl)ccc1OCC(=O)Nc1ccc(O)cc1` [Compound 57, 2-(2-(tert-butyl)-4-chlorophenoxy)-N-(4-hydroxyphenyl)acetamide] returned a Relative cytoprotective activity in assay [2] of 1.099. Also, at NAMPT [3], the “Relative activation of NAMPT activity” value stood at 0.3183.

In the case of `CC(C)(C)c1cccc(C(C)(C)C)c1OCC(=O)Nc1ccc(O)cc1` [Compound 18, 2-(2,6-di-tert-butylphenoxy)-N-(4-hydroxyphenyl)acetamide], in assay [2], the Relative cytoprotective activity is on record as 0.04793. The “Relative activation of NAMPT activity” value on NAMPT [3] is −0.142.

For `COC(=O)c1ccc(C(C)(C)C)c(OCC(=O)Nc2ccc(O)cc2)c1` [Compound 62, 4-(tert-butyl)-3-(24(4-hydroxyphenyl)amino)-2-oxoethoxy)methyl benzoate], the Relative cytoprotective activity in assay [2] is listed as 0.7359. For the same molecule, the “Relative activation of NAMPT activity” value at NAMPT [3] is 0.5464.

As to `CC(C)(C)c1cc(Br)ccc1OCC(=O)Nc1ccc(O)cc1` [Compound 61, 2-(4-bromo-2-(tert-butyl)phenoxy)-N-(4-hydroxyphenyl)acetamide], in assay [2], the Relative cytoprotective activity is given as 1.285. Further, the “Relative activation of NAMPT activity” value on NAMPT [3] was found to be 0.4032.

For the molecule `Cc1cccc(C(C)(C)C)c1OCC(=O)Nc1ccc(O)cc1` [Compound 53, 2-(2-(tert-butyl)-6-methylphenoxy)-N-(4-hydroxyphenyl)acetamide], the Relative cytoprotective activity in assay [2] amounted to 0.571. Also, the “Relative activation of NAMPT activity” value at NAMPT [3] stood at 0.327.
